The text below walks through data of US7307082B2, “Heterocyclic derivatives as CRF antagonists” (Roche Palo Alto LLC, priority 2003, dated 2007).

In one data set the target is T1, CRF receptor (Homo sapiens, UniProt P34998).
T1 construct: Cell membranes are prepared according the method of Dieterich and DeSouza (1996); endogenous in cells; host or cells: IMR-32 human neuroblastoma cells (membrane preparation)
T1 sequence (P34998 24-415): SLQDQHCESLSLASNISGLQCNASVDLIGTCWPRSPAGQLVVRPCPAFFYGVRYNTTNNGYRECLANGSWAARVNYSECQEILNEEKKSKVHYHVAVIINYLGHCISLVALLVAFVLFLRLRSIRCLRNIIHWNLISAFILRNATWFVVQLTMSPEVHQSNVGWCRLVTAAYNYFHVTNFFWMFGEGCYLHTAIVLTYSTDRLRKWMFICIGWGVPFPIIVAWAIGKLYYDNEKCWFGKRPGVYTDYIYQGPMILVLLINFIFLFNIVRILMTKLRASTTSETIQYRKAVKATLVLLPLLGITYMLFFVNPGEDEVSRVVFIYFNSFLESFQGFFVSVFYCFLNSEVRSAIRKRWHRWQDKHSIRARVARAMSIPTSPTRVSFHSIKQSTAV
The data set can be described thus: CRF Receptor Binding Assay (competition with [125I]Tyr0-ovine CRF, IMR-32 cell membranes). As to conditions: Human IMR-32 neuroblastoma cell membranes. How it is done: CRF Receptor Binding Assay
Human IMR-32 neuroblastoma cells are grown to 80% confluence in MEM medium containing 10% heat-inactivated FBS, 1 mM sodium pyruvate, and 0.1 mM nonessential amino acids. Cell membranes are prepared according the method of Dieterich and DeSouza (1996). The cells (˜5E+9) are resuspended in 10 volumes of wash buffer (5 mM Tris HCl, 10 mM MgCl2, 2 mM EGTA, pH 7.4 at RT), homogenized with a Polytron, and then centrifuged at 45,000 G for 20 min at 4° C. The membrane pellets are washed twice with wash buffer (45,000 G for 20 min at 4° C.) and then resuspended (50 mM Tris HCl, 10 mM MgCl2, 2 mM EGTA, pH 7.4 at RT). Protein concentration is determined using Pierce reagents and BSA as standard. Aliquots of 1-1.5 mL are stored at −80° C. until binding assay.
The competition binding assay is performed in a final volume of 250 μl, which contains assay buffer (50 mM Tris-HCl, 10 mM MgCl2, 2 mM EGTA, 0.2% BSA, 0.1 mM bacitracin and 100 kIU/mL aprotinin pH 7.2 at R.T.), 0.05 nM [^125I]Tyr^0-ovine CRF (Du Pont New England Nuclear), 50 μg of membrane protein, and test compound at various concentrations. Non-specific binding is determined with 1 uM hCRF. […] Unbound radioactivity is removed by four rapid washes (0.8 ml/well) with wash buffer. The radioactivity is quantified using a Packard TopCount. […]

What is called melting point is the temperature of the solid-liquid transition. On to `CCCC(CCC)N1C(=O)CCc2c(C)nc(N(CC)c3ccc(C(C)C)cc3Br)nc21` [Cpd 117, 2-[(2-Bromo-4-isopropyl-phenyl)-eth-yl-amino]-4-methyl-8-(1-propyl-bu-tyl)-5,8-dihydro-6H-pyrido[2,3-d]py-rimidin-7-one], for which the melting point was in the range of 92 to 94 °C.

In the case of `CCCC(CCC)N1CCCc2c(C)nc(N(CC)c3ccc(C(C)C)cc3Br)nc21.Cl`, the melting point was in the range of 201 to 205 °C.

In turn, `CCC(CC)N1C(=O)CCc2c(C)nc(Nc3ccc(C(C)C)cc3Br)nc21` [Cpd 113, 2-(2-Bromo-4-isopropyl-phenyl-amino)-8-(1-ethyl-propyl)-4-meth-yl-5,8-dihydro-6H-pyrido[2,3-d]py-rimidin-7-one] yielded a melting point of 124 to 126 °C.

`CCCC(CCC)N1CCCc2c(C)nc(Nc3ccc(C(C)C)cc3Br)nc21.Cl` displayed a melting point of 182 to 184 °C.

The IC50 is the midpoint of a concentration-inhibition curve. What is called Ki is the equilibrium dissociation constant of an inhibitor or competing ligand from its target. Turning to `CCC(CC)N1CCc2c(C)nc(N(CC)c3c(C)cc(C)cc3C)nc21` [Cpd 2, Ethyl-[7-(1-ethyl-propyl)-4-meth-yl-6,7-dihydro-5H-pyr-rolo[2,3-d]pyrimidin-2-yl]-(2,4,6-tri-methyl-phenyl)-amine;compound with trifluoro-aceticacid], at CRF receptor (0.05 nM [125I]Tyr0-ovine CRF, 2 hr at 25° C.), the IC50 was 2.09 µM. Further, the Ki at CRF receptor (pKi values are derived from pIC50 values) was 0.195 µM.
